# In patent publication US10590140B2, “Tetrahydropyrimidodiazepine and dihydropyridodiazepine compounds for treating pain and pain related conditions” (ESTEVE PHARMACEUTICALS, S.A., priority 2016, dated 2020):
# Target: human α2δ-1 subunit of Cav2.2 calcium channel (Homo sapiens (Human), UniProt P54289)
# Assay: Binding assay to human α2δ-1 subunit of Cav2.2 calcium channel ([3H]-Gabapentin)
# Conditions: Table 2, dual compounds; [3H]-Gabapentin binding; read-out: Ki (nM) α2δ-1
# Experimental: Binding Assay to Human α2δ-1 Subunit of Cav2.2 Calcium Channel.
# NSB (non specific binding) was measured by adding 10 μM pregabalin. After 60 min incubation at 27° C., binding reaction was terminated by filtering through Multiscreen GF/C (Millipore) presoaked in 0.5% polyethyleneimine in Vacuum Manifold Station, followed by 3 washes with ice-cold filtration buffer containing 50 mM Tris-HCl, pH 7.4.
# Filter plates were dried at 60° C. for 1 hour and 30 μl of scintillation cocktail were added to each well before radioactivity reading.
# Sequence of human α2δ-1 subunit of Cav2.2 calcium channel (P54289 25-1103): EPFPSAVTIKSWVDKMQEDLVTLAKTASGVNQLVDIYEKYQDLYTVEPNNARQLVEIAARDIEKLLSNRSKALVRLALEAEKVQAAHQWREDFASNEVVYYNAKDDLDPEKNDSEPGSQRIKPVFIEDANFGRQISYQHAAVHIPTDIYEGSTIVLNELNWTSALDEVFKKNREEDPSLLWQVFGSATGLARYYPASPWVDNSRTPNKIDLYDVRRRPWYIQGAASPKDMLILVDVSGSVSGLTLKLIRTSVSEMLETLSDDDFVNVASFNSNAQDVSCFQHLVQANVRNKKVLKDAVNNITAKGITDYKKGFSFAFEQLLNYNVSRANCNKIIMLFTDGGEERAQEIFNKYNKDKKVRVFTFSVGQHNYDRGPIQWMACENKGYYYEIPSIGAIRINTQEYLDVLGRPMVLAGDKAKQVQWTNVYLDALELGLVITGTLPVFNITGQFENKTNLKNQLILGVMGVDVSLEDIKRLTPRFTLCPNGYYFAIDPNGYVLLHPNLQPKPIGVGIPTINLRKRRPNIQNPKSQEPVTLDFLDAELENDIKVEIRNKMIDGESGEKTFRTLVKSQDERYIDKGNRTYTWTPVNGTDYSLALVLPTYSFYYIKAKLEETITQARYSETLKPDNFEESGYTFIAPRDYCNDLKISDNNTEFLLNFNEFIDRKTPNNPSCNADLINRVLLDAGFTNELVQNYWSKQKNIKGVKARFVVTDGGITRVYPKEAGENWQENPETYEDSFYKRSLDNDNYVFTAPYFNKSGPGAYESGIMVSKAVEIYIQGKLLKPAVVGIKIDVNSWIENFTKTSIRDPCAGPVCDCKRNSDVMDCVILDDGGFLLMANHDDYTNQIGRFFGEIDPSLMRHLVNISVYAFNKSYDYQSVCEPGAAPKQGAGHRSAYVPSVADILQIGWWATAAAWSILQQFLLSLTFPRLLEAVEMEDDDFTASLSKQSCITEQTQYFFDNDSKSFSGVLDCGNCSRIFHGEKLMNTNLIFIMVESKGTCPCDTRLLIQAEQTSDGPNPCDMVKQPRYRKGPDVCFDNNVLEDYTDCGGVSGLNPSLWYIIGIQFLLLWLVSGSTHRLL
row,Compound,Ki
1,"CCNc1ncc2c(n1)N(C)CCN(c1cccc(CO[C@H](CCNC)c3cccs3)c1)C2=O [Example 212, (R)-2-(ethylamino)-9-methyl-6-(3-((3-(methylamino)-1-(thiophen-2-yl)propoxy)methyl)phenyl)-6,7,8,9-tetrahydro-5H-pyrimido[4,5-e][1,4]diazepin-5-one]",100 to 500 nM

# Same assay, conditions: binding to α2δ-1, [3H]-Gabapentin; read-out: Ki (nM) α2δ-1
row,Compound,Ki
1,"CCNc1ncc2c(n1)N(C)CCN(c1cccc(-n3cnc(CNC)c3)c1)C2=O [Example 186, 2-(ethylamino)-9-methyl-6-(3-(4-((methylamino)methyl)-1H-imidazol-1-yl)phenyl)-6,7,8,9-tetrahydro-5H-pyrimido[4,5-e][1,4]diazepin-5-one]",100 to 500 nM
2,"CCNc1ncc2c(n1)N(C)CCN(c1cccc(OC(C)CN(C)C(=O)OC(C)(C)C)c1)C2=O (centres unmarked) [Example 74, tert-butyl (2-(3-(2-(ethylamino)-9-methyl-5-oxo-5,7,8,9-tetrahydro-6H-pyrimido[4,5-e][1,4]diazepin-6-yl)phenoxy)propyl) (methyl)carbamate]",> 3000 nM
3,"CCNc1ncc2c(n1)N(C)CCN(c1cccc(C#N)c1)C2=O [Example 110, 3-(2-(ethylamino)-9-methyl-5-oxo-5,7,8,9-tetrahydro-6H-pyrimido[4,5-e][1,4]diazepin-6-yl)benzonitrile]",> 3000 nM
4,"Cc1cc2c(cn1)C(=O)N(Cc1ccc(O[C@@H](CCN(C)C(=O)OCC[Si](C)(C)C)c3cccs3)cc1)CCN2C [Example 301, 2-(trimethylsilyl)ethyl (S)-(3-(4-((1,8-dimethyl-5-oxo-1,2,3,5-tetrahydro-4H-pyrido[4,3-e][1,4]diazepin-4-yl)methyl)phenoxy)-3-(thiophen-2-yl)propyl)(methyl) carbamate]",> 3000 nM
5,"CSc1ncc2c(n1)N(C)CCN(c1cccc(OCCN(C)C(=O)OC(C)(C)C)c1)C2=O [Example 22, tert-butyl methyl(2-(3-(9-methyl-2-(methylthio)-5-oxo-5,7,8,9-tetrahydro-6H-pyrimido[4,5-e][1,4]diazepin-6-yl)phenoxy)ethyl) carbamate]",> 3000 nM
6,"CN(CC[C@H](Oc1ccc(CN2CCN(C)c3cc(Cl)ncc3C2=O)cc1)c1cccs1)C(=O)OCC[Si](C)(C)C [Example 299, 2-(trimethylsilyl)ethyl (S)-(3-(4-((8-chloro-1-methyl-5-oxo-1,2,3,5-tetrahydro-4H-pyrido[4,3-e][1,4]diazepin-4-yl)methyl)phenoxy)-3-(thiophen-2-yl)propyl)(methyl) carbamate]",> 3000 nM
7,"CCNc1ncc2c(n1)N(C)CCN(c1cccc(COC(C)CCN(C)C(=O)OC(C)(C)C)c1)C2=O (centres unmarked) [Example 127, tert-butyl (3-((3-(2-(ethylamino)-9-methyl-5-oxo-5,7,8,9-tetrahydro-6H-pyrimido[4,5-e][1,4]diazepin-6-yl)benzyl)oxy)butyl) (methyl)carbamate]",> 3000 nM
8,"CCNc1ncc2c(n1)N(CC)CCN(c1cccc(-c3nnc(C)o3)c1)C2=O [Example 107, 9-ethyl-2-(ethylamino)-6-(3-(5-methyl-1,3,4-oxadiazol-2-yl)phenyl)-6,7,8,9-tetrahydro-5H-pyrimido[4,5-e][1,4]diazepin-5-one]",100 to 500 nM
9,"CSc1ncc2c(n1)N(C)CCN(Cc1ccc(OC(CN(C)C(=O)OC(C)(C)C)c3ccccc3)cc1)C2=O (centres unmarked) [Example 63, tert-butyl methyl(2-(4-((9-methyl-2-(methylthio)-5-oxo-5,7,8,9-tetrahydro-6H-pyrimido[4,5-e][1,4]diazepin-6-yl)methyl)phenoxy)-2-phenylethyl)carbamate]",> 3000 nM
10,"CCNc1ncc2c(n1)N(C)CCN(c1cccc(CO[C@H](CCNC)c3cccs3)c1)C2=O [Example 212, (R)-2-(ethylamino)-9-methyl-6-(3-((3-(methylamino)-1-(thiophen-2-yl)propoxy)methyl)phenyl)-6,7,8,9-tetrahydro-5H-pyrimido[4,5-e][1,4]diazepin-5-one]",100 to 500 nM
11,"CCNc1ncc2c(n1)N(C)CCN(c1cccc(-n3cc(CNC(=O)OC(C)(C)C)nn3)c1)C2=O [Example 117, tert-butyl ((1-(3-(2-(ethylamino)-9-methyl-5-oxo-5,7,8,9-tetrahydro-6H-pyrimido[4,5-e][1,4]diazepin-6-yl)phenyl)-1H-1,2,3-triazol-4-yl)methyl)carbamate]",> 3000 nM
12,"CCNc1ncc2c(n1)N(C)CCN(c1ccc(OC(CN(C)C(=O)OC(C)(C)C)c3ccccc3)cc1)C2=O (centres unmarked) [Example 76, tert-butyl (2-(4-(2-(ethylamino)-9-methyl-5-oxo-5,7,8,9-tetrahydro-6H-pyrimido[4,5-e][1,4]diazepin-6-yl)phenoxy)-2-phenylethyl)(methyl) carbamate]",> 3000 nM
13,"CCNc1ncc2c(n1)N(C)CCN(c1cccc(OC)c1)C2=O [Example 109, 2-(ethylamino)-6-(3-methoxyphenyl)-9-methyl-6,7,8,9-tetrahydro-5H-pyrimido[4,5-e][1,4]diazepin-5-one]",500 to 3000 nM
14,"CNCC[C@H](Oc1ccc(CN2CCN(C)c3nc(OC)ncc3C2=O)c(F)c1)c1cccs1 [Example 401, (S)-6-(2-fluoro-4-(3-(methylamino)-1-(thiophen-2-yl)propoxy)benzyl)-2-methoxy-9-methyl-6,7,8,9-tetrahydro-5H-pyrimido[4,5-e][1,4]diazepin-5-one]",< 100 nM
15,"CSc1ncc2c(n1)N(C)CCN(c1cccc(CO[C@@H](CCN(C)C(=O)OC(C)(C)C)c3cccs3)c1)C2=O [Example 17, tert-butyl (S)-methyl(3-((3-(9-methyl-2-(methylthio)-5-oxo-5,7,8,9-tetrahydro-6H-pyrimido[4,5-e][1,4]diazepin-6-yl)benzyl)oxy)-3-(thiophen-2-yl)propyl) carbamate]",> 3000 nM
16,"CNCCC(OCc1ccccc1CN1CCN(C)c2nc(C)ncc2C1=O)c1ccccc1 (centres unmarked) [Example 421, 2,9-dimethyl-6-(2-((3-(methylamino)-1-phenylpropoxy)methyl)benzyl)-6,7,8,9-tetrahydro-5H-pyrimido[4,5-e][1,4]diazepin-5-one]",> 3000 nM
17,"CNCCC(OCc1cccc(N2CCN(C)c3cc(C)ncc3C2=O)c1)c1ccccc1 (centres unmarked) [Example 306, 1,8-dimethyl-4-(3-((3-(methylamino)-1-phenylpropoxy)methyl)phenyl)-1,2,3,4-tetrahydro-5H-pyrido[4,3-e] [1,4]diazepin-5-one]",500 to 3000 nM
18,"CCNc1ncc2c(n1)N(C)CCN(c1cccc(CO[C@@H](CCN(C)C(=O)OC(C)(C)C)c3ccccc3)c1)C2=O [Example 79, tert-butyl (S)-(3-((3-(2-(ethylamino)-9-methyl-5-oxo-5,7,8,9-tetrahydro-6H-pyrimido[4,5-e][1,4]diazepin-6-yl)benzyl)oxy)-3-phenylpropyl)(methyl) carbamate]",> 3000 nM
19,"CCNc1ncc2c(n1)N(C)CCN(c1cccc(OC(CN)c3ccccc3)c1)C2=O (centres unmarked) [Example 156, 6-(3-(2-amino-1-phenylethoxy)phenyl)-2-(ethylamino)-9-methyl-6,7,8,9-tetrahydro-5H-pyrimido[4,5-e][1,4]diazepin-5-one]",> 3000 nM
20,"CCNc1ncc2c(n1)N(C)CCN(c1cccc(OC(CN(C)C(=O)OC(C)(C)C)C(C)C)c1)C2=O (centres unmarked) [Example 75, tert-butyl (2-(3-(2-(ethylamino)-9-methyl-5-oxo-5,7,8,9-tetrahydro-6H-pyrimido[4,5-e][1,4]diazepin-6-yl)phenoxy)-3-methylbutyl) (methyl)carbamate]",> 3000 nM
21,"CNCCC(Oc1cccc(CN2CCN(C)c3ncncc3C2=O)c1)c1ccccc1 (centres unmarked) [Example 429, 9-methyl-6-(3-(3-(methylamino)-1-phenylpropoxy)benzyl)-6,7,8,9-tetrahydro-5H-pyrimido[4,5-e][1,4]diazepin-5-one]",> 3000 nM
22,"CCNc1ncc2c(n1)N(C)CCN(c1cccc(CN3CCC(c4ccccc4)(N(C)C)CC3)c1)C2=O [Example 292, 6-(3-((4-(dimethylamino)-4-phenylpiperidin-1-yl)methyl)phenyl)-2-(ethylamino)-9-methyl-6,7,8,9-tetrahydro-5H-pyrimido[4,5-e] [1,4]diazepin-5-one]",500 to 3000 nM
23,"CCNc1ncc2c(n1)N(C)CCN(c1cccc(OC(CCN(C)C(=O)OC(C)(C)C)c3ccccc3)c1)C2=O (centres unmarked) [Example 69, tert-Butyl (3-(3-(2-(ethylamino)-9-methyl-5-oxo-5,7,8,9-tetrahydro-6H-pyrimido[4,5-e][1,4]diazepin-6-yl)phenoxy)-3-phenylpropyl)(methyl)carbamate]",> 3000 nM
24,"CN(CC[C@H](Oc1cccc(N2CCN(C)c3cc(Cl)ncc3C2=O)c1)c1cccs1)C(=O)OCC[Si](C)(C)C [Example 298, 2-(trimethylsilyl)ethyl (S)-(3-(3-(8-chloro-1-methyl-5-oxo-1,2,3,5-tetrahydro-4H-pyrido[4,3-e][1,4]diazepin-4-yl)phenoxy)-3-(thiophen-2-yl)propyl)(methyl) carbamate]",> 3000 nM
25,"CCNc1ncc2c(n1)N(C)CCN(Cc1ccc(CN(C)C(=O)OC(C)(C)C)cc1)C2=O [Example 137, tert-butyl (4-((2-(ethylamino)-9-methyl-5-oxo-5,7,8,9-tetrahydro-6H-pyrimido[4,5-e][1,4]diazepin-6-yl)methyl)benzyl) (methyl)carbamate]",> 3000 nM
26,"CCNc1ncc2c(n1)N(C)CCN(c1cccc(COC3(c4ccccc4)CCN(C)CC3)c1)C2=O [Example 272, 2-(ethylamino)-9-methyl-6-(3-(((1-methyl-4-phenylpiperidin-4-yl)oxy)methyl)phenyl)-6,7,8,9-tetrahydro-5H-pyrimido[4,5-e][1,4]diazepin-5-one]",500 to 3000 nM
27,"CNCC[C@H](Oc1ccc(CN2CCN(C)c3c(F)cncc3C2=O)cc1)c1cccs1 [Example 399, (S)-9-fluoro-1-methyl-4-(4-(3-(methylamino)-1-(thiophen-2-yl)propoxy)benzyl)-1,2,3,4-tetrahydro-5H-pyrido[4,3-e][1,4]diazepin-5-one]",100 to 500 nM
28,"CN(CCC(Oc1cccc(N2CCN(C)c3ncncc3C2=O)c1)c1cccs1)C(=O)OCC[Si](C)(C)C (centres unmarked) [Example 147, 2-(trimethylsilyl)ethyl methyl(3-(3-(9-methyl-5-oxo-5,7,8,9-tetrahydro-6H-pyrimido[4,5-e][1,4]diazepin-6-yl)phenoxy)-3-(thiophen-2-yl)propyl)carbamate]",> 3000 nM
